What is called AUC is the area under the concentration-time curve, a measure of exposure. Higher therefore signals more exposure. One may read the Cmax as the peak of the concentration-time curve. What is called IC50 is the concentration that gives 50% inhibition.

The source of these data is publication PMC7597670 (Bioorganic & medicinal chemistry letters, 2010).

A short description of series [1]: Pharmacokinetics after single oral and intravenous administration in rats. As to conditions: for AUC / Cmax: rat, plasma, po, 10 mg/kg; for BA: rats, 10 mg/kg po vs 3 mg/kg iv.
In series [2] the target is human CCR5 (Homo sapiens, UniProt P51681). It counts as cell-based. The conditions noted are these: versus the other three stereoisomers of the hydroxylated analog of 1.
Series [3] deals with HIV-1MM (R5MDR). As to conditions: read-out: Anti-HIV-1 activity IC50 HIV-1MM (R5MDR); inhibition of HIV p24 antigen expression in PBMC; multidrug-resistant.
Series [4] relates to HIV-1Ba-L (R5). Kind of series: Anti-HIV-1 activity: inhibition of HIV p24 antigen expression in PBMC, HIV-1Ba-L. In kind it is cell-based. As to conditions: read-out: Anti-HIV-1 activity IC50 HIV-1Ba-L (R5).

Sequence of human CCR5 (P51681 whole entry): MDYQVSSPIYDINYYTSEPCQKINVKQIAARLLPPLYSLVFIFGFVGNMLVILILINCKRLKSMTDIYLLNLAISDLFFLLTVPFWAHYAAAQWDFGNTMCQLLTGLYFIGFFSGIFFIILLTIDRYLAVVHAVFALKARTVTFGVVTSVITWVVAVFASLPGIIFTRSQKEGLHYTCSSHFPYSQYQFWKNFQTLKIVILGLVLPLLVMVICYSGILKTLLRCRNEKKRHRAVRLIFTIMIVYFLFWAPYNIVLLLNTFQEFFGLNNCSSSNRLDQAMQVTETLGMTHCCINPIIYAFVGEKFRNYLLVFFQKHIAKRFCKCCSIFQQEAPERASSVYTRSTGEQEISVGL

Regarding `CCCCN1C(=O)C(CC(C)C)NC(=O)C12CCN(Cc1ccc(Oc3ccccc3)cc1)CC2.Cl` (stereo not drawn) [Compound 1], in series [1], the AUC turned out to be 96.7 ng·h/mL and the Cmax is 33.3 ng/mL.

With `CCCCN1C(=O)C(CC2CCCCC2)NC(=O)C12CCN(Cc1ccc(Oc3ccccc3)cc1)CC2.Cl` (stereo not drawn) [Compound 2], in series [1], the AUC is 24.8 ng·h/mL, the highest level (Cmax) was 5.6 ng/mL and the BA was determined as 1.9%. On to `CCCCN1C(=O)[C@@H]([C@H](O)C(C)C)NC(=O)C12CCN(Cc1ccc(Oc3ccccc3)cc1)CC2.Cl` [Compound 3], for which, in series [2], the “fold higher potency than the other isomers in Ca assay” value is given as 4.5-12 fold.

In turn, `CCCCN1C(=O)[C@H](CC2CCCCC2)NC(=O)C12CCN(Cc1ccc(Oc3ccc(C(=O)O)cc3)cc1)CC2.Cl` [Compound 5] had a BA in series [1] of 34%. On to SCH-351125, for which the IC50 in series [3] was 3 ± 0.5 nM; in series [4], 4 ± 2 nM.
